Test results: US8143254B2, “Methods for modulating ion channels” (Cornell Research Foundation, Inc., priority 2005, dated 2012)

Columns and labels:
[1] = target: T1, Kv2.1 (Rattus norvegicus, UniProt P15387); assay: Two-electrode voltage clamp (TEVC) of Xenopus oocytes expressing Kv2.1, bath-applied compound; assay type: cell-based; conditions: for effect on Kv2.1 currents: 1 mM, bath applied
T1 construct: expressed in transfected cells; host or cells: Xenopus laevis oocytes (cRNA injection, pGA1 vector)
From the text: The ion channel subunit genes are in expression vectors that facilitate in vitro transcription of channel cRNA using the Ambion mMessage mMachine in vitro transcription kit. cDNA constructs are column-purified, linearized with the appropriate restriction enzyme that cuts a single site following the polyA tail, then purified by precipitation and transcribed in vitro using a promoter, such as T7, T3 and SP6. Transcribed cRNA is purified by precipitation and resuspended in RNAse-free water ready for injection. Each transcription can provide enough cRNA for several months of experiments.
Stage V-VI Xenopus oocytes are separated into small groups using forceps, defolliculated by agitation in Ca^2+-free Ringer solution containing collagenase for one hour, washed, then stored at 15° C. in full Ringers solution before injection. cRNA sufficient to give 1-10 μA of current at physiological voltages for each channel type is injected into Xenopus oocytes (selected by appearance for overall health and uniformity of color) using a Sutter manual injector (typically 0.1-5 ng cRNA in a volume of 25-50 nl). The oocytes are then stored for 1-3 days at 15° C. before TEVC recording. Beta subunit cRNA is co-injected as appropriate, typically 2 ng per oocyte.
Whole cell oocyte experiments are performed using a Warner OC-725C amplifier and pClamp9 software with oocytes bathed in a small-volume Warner oocyte bath and viewed with a Fisher dissection microscope. Bath solution for whole cell oocyte recordings, e.g., for potassium channel analysis, is generally (in mM): 96 NaCl, 4 KCl, 1 MgCl2, 0.3 CaCl2, 10 HEPES (Ph 7.4); whole-cell oocyte TEVC pipettes are filled with 3 M KCl. Oocyte patches are studies using an Axon Instruments small-volume bath, viewed with an Olympus IX50 inverted microscope, and recordings made using an Axon Multiclamp 700 A Amplifier and pCLAMP9 software (Axon Instruments). Extracellular solution, e.g., for potassium channel analysis, is generally (in mM): 135 NaCl, 5 KCl, 1.2 MgCl2, 5 HEPES, 2.5 CaCl2, 10 D-glucose (Ph 7.4). Intracellular solution, e.g., for potassium channel analysis, is generally (in mM): 10 NaCl, 117 KCl, 2 MgCl2, 11 HEPES, 11 EGTA, ICaCl2 (Ph 7.2). Patch pipettes are approximately 3-5 MΩ resistance when filled with recording solution.
Quantitative aspects of ion action on ion channels are compared using standard pulse protocols. Pulse times and voltages will vary according to which currents are being studied. […] Drug inhibition constants are calculated after generating a dose response curve by fitting with a logistic dose-response function (see equation (i) below). Typically, 5-20 cells per group are recorded from for heterologous expression experiments. Values are to be stated as mean±SEM with statistical significance set at p<0.05 (unpaired students t-test, ANOVA or the Mann-Whitney Rank Sum Test as appropriate).
Injected oocytes, bathed in bath solution containing 4 mM KCl, unless otherwise stated, are impaled with current and voltage electrodes and clamped at −80 mV holding potential using a Warner OC-725C amplifier. […] Drug concentrations are chosen to ensure inhibition values between 0 and 90-100% with at least 3 values within the linear portion of the curve so that the inhibition constant (Ki) can be calculated accurately by fitting with a logistic dose-response function (formula (i)) using the Origin 6.1 graph package.
Kv2.1 mutants were constructed using the QuickChange Multi Site-Directed Mutagenesis Kit (Stratagene, La Jolla, Calif.). […] For oocyte expression, Kv3.4 was in pBF1, Kv4.2 was in pRAT. cRNA transcripts were produced from SacII-linearized (Kv2.1), Mlullinearized (Kv3.4) and Not1-linearized (Kv4.2) DNA templates using the T3 (Kv2.1), SP6 (Kv3.4) and T7 (Kv4.2) mMessage mMachine kits (Ambion, Austin, Tex.). cRNA was quantified by spectrophotometry and its size integrity verified by gel electophoresis.

[2] = target: T2, Kv3.4 (UniProt Q63734); assay: TEVC of X. laevis oocytes expressing Kv3.4; assay type: cell-based; conditions: 1 mM, bath applied
T2 construct: IC50; other: Kv3.4, logistic dose response fit; effect on Kv3.4 currents; other: 1 mM, bath applied; slope of dose response curve; other: Kv3.4
T2 sequence (Q63734 1-625): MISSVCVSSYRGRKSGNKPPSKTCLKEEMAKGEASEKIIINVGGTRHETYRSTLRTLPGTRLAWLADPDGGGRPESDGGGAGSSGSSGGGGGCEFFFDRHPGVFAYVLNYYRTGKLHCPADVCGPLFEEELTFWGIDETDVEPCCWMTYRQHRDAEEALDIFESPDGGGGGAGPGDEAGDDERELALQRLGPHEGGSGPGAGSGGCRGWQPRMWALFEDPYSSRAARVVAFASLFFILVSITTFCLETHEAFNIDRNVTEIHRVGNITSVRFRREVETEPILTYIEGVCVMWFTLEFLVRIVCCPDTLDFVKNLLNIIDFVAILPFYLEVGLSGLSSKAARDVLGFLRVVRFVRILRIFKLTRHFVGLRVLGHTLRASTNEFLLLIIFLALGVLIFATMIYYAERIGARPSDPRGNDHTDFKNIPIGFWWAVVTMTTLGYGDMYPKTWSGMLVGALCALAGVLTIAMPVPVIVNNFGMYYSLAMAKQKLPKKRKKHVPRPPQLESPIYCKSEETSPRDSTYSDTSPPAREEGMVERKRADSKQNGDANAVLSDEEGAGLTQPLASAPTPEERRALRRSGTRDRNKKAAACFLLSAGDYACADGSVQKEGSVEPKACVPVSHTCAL
From the text: Kv2.1 mutants were constructed using the QuickChange Multi Site-Directed Mutagenesis Kit (Stratagene, La Jolla, Calif.). […] For oocyte expression, Kv3.4 was in pBF1, Kv4.2 was in pRAT. cRNA transcripts were produced from SacII-linearized (Kv2.1), Mlullinearized (Kv3.4) and Not1-linearized (Kv4.2) DNA templates using the T3 (Kv2.1), SP6 (Kv3.4) and T7 (Kv4.2) mMessage mMachine kits (Ambion, Austin, Tex.). cRNA was quantified by spectrophotometry and its size integrity verified by gel electophoresis. Defolliculated stage V and VI Xenopus laevis oocytes (purchased from Nasco, Grand Island, N.Y.) were injected with 5 ng of cRNA encoding Kv2.1, Kv3.4 or Kv4.2. Chinese Hamster Ovary (CHO) cells were transfected with 0.25 μg Kv2.1 cDNA, 2 μg blank plasmid and 2 μg Green fluorescent Protein in pBOB using Supetfect transfection reagent (Qiagen) 24 hours before whole-cell voltage clamp studies.
Oocytes were bathed in a small-volume Warner oocyte bath and viewed with a Fisher dissection microscope. Bath solution for whole-cell oocyte recordings was (in mM): 96 NaCl, 4 KCl, 0.7 MgCl2, 1 CaCl2, 10 HEPES (pH 7.4); whole-cell oocyte TEVC pipettes were of 0.2-2 M resistance when filled with 3 M KCl. Experiments were performed 24-48 hours after cRNA injection. For assessment of current-voltage relationships in the absence or presence of dabco derivatives, oocytes were held at −80 mV, stepped for 2 seconds at voltages between −80 mV and +60 mV in 20 mV steps (Kv2.1) or between −80 and +50 mV in 10 mV steps (Kv3.4), then held for 500 ms at −40 mV before returning to the holding potential. For assessment of block during wash-in of dabco derivatives at a single voltage, oocytes were held at −80 mV, and repetitively stepped to 0 mV for 2 s with an interpulse interval of 10 s or 60 s as indicated. A range of concentrations of dabco or dabco derivatives were washed in via the bath solution during repetitive single-voltage pulses (after an initial period of 5 pulses with control solution to ensure current stabilization) until equilibrium block was achieved, to establish dose-responses. […] Washout was performed after the highest concentration of blocker was washed in. In cases where washout was achieved, only those recordings in which current returned to within 10% of original current level were used for construction of dose-response curves. […] As controls for this protection analysis, JC638.2a or MTSET were washed in alone until equilibrium block, then washed out.
Data analysis: Current-voltage relationships were obtained by measuring peak current during depolarizing pulses. Inhibition constants for DABCO blockers were calculated after generating a dose response curve by fitting with a logistic dose-response function y=A2+[A1−A2/1+(x/x0)^p], where A1 is the maximum response plateau, A2 is the minimum response plateau, x is drug concentrator, x0 is the IC50, and p the Hill slope. Data analysis was performed using […] 9 (Axon Instruments, Foster City, Calif.) and tabulated in Excel 5.0. Graphs were generated using Origin 6.1. Data are expressed as mean±SEM, with n specifying the number of independent experiments. Statistical significance was assessed by one-way ANOVA with p<0.05 being indicative of significance.

T1 sequence (P15387 whole entry): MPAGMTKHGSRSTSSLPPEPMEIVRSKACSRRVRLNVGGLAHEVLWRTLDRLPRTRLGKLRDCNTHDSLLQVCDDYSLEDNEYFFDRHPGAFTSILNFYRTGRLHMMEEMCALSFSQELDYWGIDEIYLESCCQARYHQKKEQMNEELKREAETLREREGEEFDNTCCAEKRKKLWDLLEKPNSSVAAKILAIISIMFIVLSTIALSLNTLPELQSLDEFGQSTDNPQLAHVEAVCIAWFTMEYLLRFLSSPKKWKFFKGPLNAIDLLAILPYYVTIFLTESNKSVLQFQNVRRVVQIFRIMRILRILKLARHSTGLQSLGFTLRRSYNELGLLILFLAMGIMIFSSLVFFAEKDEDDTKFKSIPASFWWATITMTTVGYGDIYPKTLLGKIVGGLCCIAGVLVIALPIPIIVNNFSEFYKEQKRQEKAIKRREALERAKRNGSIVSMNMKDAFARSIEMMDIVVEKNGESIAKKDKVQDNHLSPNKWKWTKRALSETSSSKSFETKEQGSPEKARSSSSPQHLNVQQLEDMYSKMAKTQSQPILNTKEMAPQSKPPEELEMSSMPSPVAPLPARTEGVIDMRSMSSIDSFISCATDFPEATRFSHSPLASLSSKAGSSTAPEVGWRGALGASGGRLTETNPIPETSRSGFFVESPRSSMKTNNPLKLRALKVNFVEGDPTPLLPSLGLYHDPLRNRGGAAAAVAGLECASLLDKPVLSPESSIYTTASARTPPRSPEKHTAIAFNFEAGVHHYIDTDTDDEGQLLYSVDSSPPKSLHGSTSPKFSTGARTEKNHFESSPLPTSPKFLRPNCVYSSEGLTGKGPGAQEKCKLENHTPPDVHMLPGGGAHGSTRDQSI

Structure (SMILES)	effect on Kv2.1 currents [1]	effect on Kv3.4 currents [2]	effect on Kv2.1 current during wash-in ([1]; 250 μM TG28, 0 mV)	Kv2.1 current level after washout relative to pre-drug current ([1]; 250 μM TG28 washed out, on average)
C1CN2CCN1CC2 [DABCO, 1,4-diazabicyclo[2.2.2]octane, reference compound]	no effects	no effects	–	–
C(CCCCCC[N+]12CCN(CC1)CC2)CCCCC[N+]12CCN(CC1)CC2 [TG28, 1,12-[bis(4-aza-1-azoniabicyclo[2.2.2]octanyl)]dodecane]	block	–	rapid reduction of current (block) followed by slow, partial restoration of current (partial opening)	two-fold larger than the pre-drug current
